From patent publication US12162893B2 (Erasca, Inc., priority 2020, dated 2024)

Molecular target: T1, mutant G12C K-RAS (Homo sapiens, UniProt P01116, G12C)
T1 construct: made in house; host or cells: E. coli BL21
Experiment: covalent adduct formation (CAF) with mutant G12C K-RAS
Assay type: binding
Design: CAF: unit not given here
Conditions: for % CAF (60 min): Table 2, Pyrimidone Core-Morpholine Substituted; for % CAF @ 10 μM,1 h: Table 6
Protocol: Embodiments disclosed herein are further illustrated by the following examples in Tables 1-4 and the Examples hereinbelow. The Tables indicate the compound number, structure, the observed mass spectral molecular weight peak, and covalent adduct formation (CAF) with a mutant G12C K-RAS after 60 minutes at a concentration of 10 micromolar.

[1] = after 60 minutes at 10 micromolar

SMILES	% CAF @ 10 μM,1 h (1 h) [%]	also measured
C=CC(=O)N1C[C@H](C)N(c2nc(=O)n3c4c(c(-c5c(O)cccc5F)c(Cl)cc24)OC[C@H]3CO)C[C@H]1C [Example 32, (3R,10R)-7-((2S,5R)-4-acryloyl-2,5-dimethylpiperazin-1-yl)-9-chloro-10-(2-fluoro-6-hydroxyphenyl)-3-(hydroxymethyl)-2H-[1,4]oxazino[2,3,4-ij]quinazolin-5(3H)-one]		% CAF (60 min) [1]: 0%
C=CC(=O)N1C[C@H](C)N(c2nc(=O)n3c4c(c(-c5ccc(F)cc5F)c(Cl)cc24)OC[C@H]3CC2CCN(C3CC3)CC2)C[C@H]1C [Example 329, (3R)-7-((2S,5R)-4-acryloyl-2,5-dimethylpiperazin-1-yl)-9-chloro-3-((1-cyclopropylpiperidin-4-yl)methyl)-10-(2,4-difluorophenyl)-2H-[1,4]oxazino[2,3,4-ij]quinazolin-5(3H)-one]	73.4	
C=CC(=O)N1C[C@H](C)N(c2nc(=O)n3c4c(c(-c5c(O)cccc5F)c(Cl)cc24)OC[C@H]3Cn2cccn2)C[C@H]1C (atropisomer, axis not shown) [Example 246, (3R,10S)-3-((1H-pyrazol-1-yl)methyl)-7-((2S,5R)-4-acryloyl-2,5-dimethylpiperazin-1-yl)-9-chloro-10-(2-fluoro-6-hydroxyphenyl)-2H-[1,4]oxazino[2,3,4-ij]quinazolin-5(3H)-one]	97.4	
C=CC(=O)N1C[C@H](C)N(c2nc(=O)n3c4c(c(-c5ccc(F)cc5F)c(Cl)cc24)OC[C@@H]3CN(C)CC(F)(F)F)C[C@H]1C [Example 237, (3S)-7-((2S,5R)-4-acryloyl-2,5-dimethylpiperazin-1-yl)-9-chloro-10-(2,4-difluorophenyl)-3-((methyl(2,2,2-trifluoroethyl)amino)methyl)-2H-[1,4]oxazino[2,3,4-ij]quinazolin-5(3H)-one]	78.5	
C=CC(=O)N1CCN(c2nc(=O)n3c4c(c(-c5ccc(F)cc5F)c(Cl)cc24)SCC3)[C@H](CC#N)C1 [Example 117, 2-((2R)-4-acryloyl-1-(9-chloro-10-(2,4-difluorophenyl)-5-oxo-2,3-dihydro-5H-[1,4]thiazino[2,3,4-ij]quinazolin-7-yl)piperazin-2-yl)acetonitrile]		% CAF @ 10 uM, 1 h (Table 5, 10 uM, 1 h): 75.6%
C=CC(=O)N1C[C@H](C)N(c2nc(=O)n3c4c(c(-c5c(F)ccc6[nH]cnc56)ccc24)OCC3)C[C@H]1C [Example 201, 7-((2S,5R)-4-acryloyl-2,5-dimethylpiperazin-1-yl)-10-(5-fluoro-1H-benzo[d]imidazol-4-yl)-2,3-dihydro-5H-[1,4]oxazino[2,3,4-ij]quinazolin-5-one]	0	
C=CC(=O)N1C[C@H](C)N(c2nc(=O)n3c4c(c(-c5ccc(F)cc5F)c(Cl)cc24)OC[C@H]3CCCn2ccnc2)C[C@H]1C [Example 272, (3R)-3-(3-(1H-imidazol-1-yl)propyl)-7-((2S,5R)-4-acryloyl-2,5-dimethylpiperazin-1-yl)-9-chloro-10-(2,4-difluorophenyl)-2,3-dihydro-5H-[1,4]oxazino[2,3,4-ij]quinazolin-5-one]	89.4	
C=CC(=O)N1C[C@H](C)N(c2nc(=O)n3c4c(c(-c5ccc(F)cc5F)c(Cl)cc24)OC[C@@H]3CC2CCN(C)CC2)C[C@H]1C [Example 324, (3S)-7-((2S,5R)-4-acryloyl-2,5-dimethylpiperazin-1-yl)-9-chloro-10-(2,4-difluorophenyl)-3-((1-methylpiperidin-4-yl)methyl)-2H-[1,4]oxazino[2,3,4-ij]quinazolin-5(3H)-one]	63.4	
C=CC(=O)N1C[C@H](C)N(c2nc(=O)n3c4c(c(-c5ccc(F)cc5F)c(Cl)cc24)OC[C@H]3CCCN(C)CC(F)(F)F)C[C@H]1C [Example 284, (3R)-7-((2S,5R)-4-acryloyl-2,5-dimethylpiperazin-1-yl)-9-chloro-10-(2,4-difluorophenyl)-3-(3-(methyl(2,2,2-trifluoroethyl)amino)propyl)-2,3-dihydro-5H-[1,4]oxazino[2,3,4-ij]quinazolin-5-one]	92.4	
C=CC(=O)N1CCN(c2nc(=O)n3c4c(c(-c5ccc(F)cc5F)cc(CC#N)c24)OCC3)CC1 [Example 289, 2-(7-(4-acryloylpiperazin-1-yl)-10-(2,4-difluorophenyl)-5-oxo-2,3-dihydro-5H-[1,4]oxazino[2,3,4-ij]quinazolin-8-yl)acetonitrile]	13.5	
C=CC(=O)N1C[C@H](C)N(c2nc(=O)n3c4c(c(-c5ccc(F)cc5F)c(Cl)cc24)OC[C@@H]3CCCN2CCS(=O)(=O)CC2)C[C@H]1C [Example 255, (3S)-7-((2S,5R)-4-acryloyl-2,5-dimethylpiperazin-1-yl)-9-chloro-10-(2,4-difluorophenyl)-3-(3-(1,1-dioxidothiomorpholino)propyl)-2,3-dihydro-5H-[1,4]oxazino[2,3,4-ij]quinazolin-5-one]	86.8	
C=CC(=O)N1C[C@H](C)N(c2nc(=O)n3c4c(c(-c5c(O)cccc5F)c(Cl)cc24)OC[C@H]3CN2CCOCC2)C[C@H]1C (atropisomer, axis not shown) [Example 209, (3R,10S)-7-((2S,5R)-4-acryloyl-2,5-dimethylpiperazin-1-yl)-9-chloro-10-(2-fluoro-6-hydroxyphenyl)-3-(morpholinomethyl)-2,3-dihydro-5H-[1,4]oxazino[2,3,4-ij]quinazolin-5-one]	85	
C=CC(=O)N1C[C@H](C)N(c2nc(=O)n3c4c(c(-c5c(O)cccc5F)c(Cl)cc24)OC[C@H]3CN2CCN(C)CC2)C[C@H]1C (atropisomer, axis not shown) [Example 301, (3R,10S)-7-((2S,5R)-4-acryloyl-2,5-dimethylpiperazin-1-yl)-9-chloro-10-(2-fluoro-6-hydroxyphenyl)-3-((4-methylpiperazin-1-yl)methyl)-2,3-dihydro-5H-[1,4]oxazino[2,3,4-ij]quinazolin-5-one]	52.1	
C=CC(=O)N1C[C@H](C)N(c2nc(=O)n3c4c(c(-c5cccc6ccccc56)c(Cl)cc24)OC[C@@H]3CN2CCN(C)CC2)C[C@H]1C (atropisomer, axis not shown) [Example 308, (3S,10S)-7-((2S,5R)-4-acryloyl-2,5-dimethylpiperazin-1-yl)-9-chloro-3-((4-methylpiperazin-1-yl)methyl)-10-(naphthalen-1-yl)-2,3-dihydro-5H-[1,4]oxazino[2,3,4-ij]quinazolin-5-one]	22.8	
C=CC(=O)N1CCN(c2nc(=O)n3c4c(c(-c5ccc(F)cc5F)c(Cl)cc24)OCC3)[C@@H](CO)C1 [Example 303, 7-((R)-4-acryloyl-2-(hydroxymethyl)piperazin-1-yl)-9-chloro-10-(2,4-difluorophenyl)-2,3-dihydro-5H-[1,4]oxazino[2,3,4-ij]quinazolin-5-one]	15.4	
C=CC(=O)N1C[C@H](C)N(c2nc(=O)n3c4c(c(-c5ccc(F)cc5F)c(Cl)cc24)OC[C@H]3CC2CCN(C3COC3)CC2)C[C@H]1C [Example 316, (3R)-7-((2S,5R)-4-acryloyl-2,5-dimethylpiperazin-1-yl)-9-chloro-10-(2,4-difluorophenyl)-3-((1-(oxetan-3-yl)piperidin-4-yl)methyl)-2H-[1,4]oxazino[2,3,4-ij]quinazolin-5(3H)-one]	84.2	
C=CC(=O)N1C[C@H](C)N(c2nc(=O)n3c4c(c(-c5ccc(F)cc5F)c(Cl)cc24)OC[C@@H]3CN2C[C@H]3CC[C@@H](C2)N3C)C[C@H]1C [Example 286, (3S)-7-((2S,5R)-4-acryloyl-2,5-dimethylpiperazin-1-yl)-9-chloro-10-(2,4-difluorophenyl)-3-(((1R,5S)-8-methyl-3,8-diazabicyclo[3.2.1]octan-3-yl)methyl)-2H-[1,4]oxazino[2,3,4-ij]quinazolin-5(3H)-one]	91.6	
C=CC(=O)N1C[C@H](C)N(c2nc(=O)n3c4c(c(-c5c(O)cccc5F)c(Cl)cc24)OC[C@H]3CO)C[C@H]1C [Example 30]		% CAF (60 min) [1]: 68.1%
C=CC(=O)N1C[C@H](C)N(c2nc(=O)n3c4c(c(-c5c(O)cccc5F)c(Cl)cc24)OC[C@H]3CO)C[C@H]1C [Example 33, (3R,10S)-7-((2S,5R)-4-acryloyl-2,5-dimethylpiperazin-1-yl)-9-chloro-1-(2-fluoro-6-hydroxyphenyl)-3-(hydroxymethyl)-2H-[1,4]oxazino[2,3,4-ij]quinazolin-5(3H)-one]		% CAF (60 min) [1]: 87.3%
C=CC(=O)N1C[C@H](C)N(c2nc(=O)n3c4c(c(-c5c(O)cccc5F)c(Cl)cc24)OC[C@H]3CN(C)CC(F)(F)F)C[C@H]1C (atropisomer, axis not shown) [Example 242, (3R,10S)-7-((2S,5R)-4-acryloyl-2,5-dimethylpiperazin-1-yl)-9-chloro-10-(2-fluoro-6-hydroxyphenyl)-3-((methyl(2,2,2-trifluoroethyl)amino)methyl)-2H-[1,4]oxazino[2,3,4-ij]quinazolin-5(3H)-one]	63.1	
C=CC(=O)N1C[C@H](C)N(c2nc(=O)n3c4c(c(-c5c(O)cccc5F)c(Cl)cc24)OC[C@H]3CN2CCC(F)(F)C2)C[C@H]1C (atropisomer, axis not shown) [Example 222, (3R,10S)-7-((2S,5R)-4-acryloyl-2,5-dimethylpiperazin-1-yl)-9-chloro-3-((3,3-difluoropyrrolidin-1-yl)methyl)-10-(2-fluoro-6-hydroxyphenyl)-2,3-dihydro-5H-[1,4]oxazino[2,3,4-ij]quinazolin-5-one]	1.4	
C=CC(=O)N1CCN(c2cc(=O)n3c4c(c(-c5ccc(F)cc5F)ccc24)CCC3)CC1 [Example 47, 1-(4-acryloylpiperazin-1-yl)-8-(2,4-difluorophenyl)-6,7-dihydropyrido[3,2,1-ij]quinolin-3(5H)-one]		CAF (Table 3, Pyridone Core-Morpholine Unsubstituted, after 60 minutes at 10 micromolar): 2
